Values of other authors as cited in patent US20230285491A1, “COMPOSITION FOR PREVENTION OF DUMPING SYNDROME IN A POST-BARIATRIC SURGERY SETTING” (METAGENICS, INC., priority 2020, published 2023).

Target: T1, GLP-1 receptor (Homo sapiens, UniProt P43220)
T1 construct: GLP-1 receptor antagonism prevented hypoglycemia in all patients and reversed neuroglycopenic symptoms; host or cells: gastric bypass patients (in vivo, endogenous receptor)
Conditions: gastric bypass patients

T1 sequence (P43220 24-463): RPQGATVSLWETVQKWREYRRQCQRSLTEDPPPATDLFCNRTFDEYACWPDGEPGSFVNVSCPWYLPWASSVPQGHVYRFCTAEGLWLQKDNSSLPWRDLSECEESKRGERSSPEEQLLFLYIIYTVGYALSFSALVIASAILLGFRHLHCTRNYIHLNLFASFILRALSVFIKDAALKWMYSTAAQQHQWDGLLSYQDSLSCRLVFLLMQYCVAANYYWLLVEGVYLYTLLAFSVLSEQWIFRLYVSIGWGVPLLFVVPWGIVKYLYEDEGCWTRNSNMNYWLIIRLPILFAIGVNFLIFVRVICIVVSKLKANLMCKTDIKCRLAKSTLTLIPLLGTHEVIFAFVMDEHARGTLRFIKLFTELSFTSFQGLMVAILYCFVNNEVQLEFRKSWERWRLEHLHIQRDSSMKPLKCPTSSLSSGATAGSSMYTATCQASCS

Exendin-(9-39)
effect on postprandial hypoglycemic and hyperinsulinemic events: corrected postprandial hypoglycemic and hyperinsulinemic events
